Data taken from patent US20210238162A1, “CHEMICAL COMPOUNDS” (GlaxoSmithKline Intellectual Property Development Limited, priority 2015, published 2021).
Counter-ions that a name gives are not always drawn.

These compounds were tested against T1, haematopoietic prostaglandin D synthase (H-PGDS) (Homo sapiens, UniProt O60760) (assay: H-PGDS RapidFire High Throughput Mass Spectrometry Assay). Conditions: H-PGDS RapidFire MS assay, mean pIC50; read-out: Potency Range (mean pIC50) (converted).
T1 construct: Full length human H-PGDS cDNA (Invitrogen Ultimate ORF IOH13026) was amplified by PCR; made in house; host or cells: E. coli BL21 (DE3*), vector pET22b+
Type: biochemical
Summary of the method: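 PGH2 (~10 μM burst) generated in situ from arachidonic acid by FLAG-tagged human COX-2 (Sf9-expressed), then converted to PGD2 by full-length human His-tagged H-PGDS from E. coli. PGD2 and PGF2α (substrate surrogate) quantified by RapidFire SPE-triple quadrupole MS; percent conversion calculated.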

T1 sequence (O60760 whole entry): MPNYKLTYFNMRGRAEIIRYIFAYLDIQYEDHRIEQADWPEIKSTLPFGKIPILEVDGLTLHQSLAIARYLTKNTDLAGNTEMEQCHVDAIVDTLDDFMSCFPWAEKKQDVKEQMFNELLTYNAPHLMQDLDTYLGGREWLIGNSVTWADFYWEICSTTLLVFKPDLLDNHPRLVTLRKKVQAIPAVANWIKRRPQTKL

Structure (SMILES)	IC50 [nM]
CC(C)(O)[C@H]1CC[C@H](NC(=O)c2cnc3cc(C4CCC4)c(Cl)cc3c2)CC1 [Example 179, 6-Chloro-7-cyclobutyl-N-(trans-4-(2-hydroxypropan-yl)cyclohexyl)quinoline-3-carboxamide]	< 10
N#Cc1cc2cc(C(=O)N[C@H]3CCNC3=O)cnc2cc1C1CC1 [Example 25, (S)-6-Cyano-7-cyclopropyl-N-(2-oxopyrrolidin-3-yl)quinoline-3-carboxamide hydrochloride]	10 to 79.4
Cn1nnnc1N1CCC(NC(=O)c2cnc3cc(Cl)ccc3c2)CC1 [Example 109, 7-Chloro-N-(1-(1-methyl-1H-tetrazol-5-yl)piperidin-4-yl)quinoline-3-carboxamide]	100 to 1000
C=Cc1cc2ncc(C(=O)N[C@H]3CC[C@H](C(C)(C)O)CC3)cc2cc1Cl [Example 225, 6-Chloro-N-((trans)-4-(2-hydroxypropan-2-yl)cyclohexyl)-7-vinylquinoline-3-carboxamide]	10 to 79.4
CC1(O)CCC(NC(=O)c2cnc3cc(OC(F)F)c(Cl)cc3c2)C1 (centres unmarked) [Example 145, 6-Chloro-7-(difluoromethoxy)-N-(3-hydroxy-3-methylcyclopentyl)quinoline-3-carboxamide]	10 to 79.4
Cn1nnnc1N1CCC(NC(=O)c2cnc3cc(Br)ccc3c2)CC1 [Example 108, 7-Bromo-N-(1-(1-methyl-1H-tetrazol-5-yl)piperidin-4-yl)quinoline-3-carboxamide]	10 to 79.4
CC(C)(O)[C@H]1CC[C@H](NC(=O)c2cnc3cc(N)c(F)cc3c2)CC1 [Example 173, 7-Amino-6-fluoro-N-(trans-4-(2-hydroxypropan-2-yl)cyclohexyl)quinoline-3-carboxamide]	100 to 1000
Cc1cc2cc(C(=O)N[C@H]3CC[C@H](C(C)(C)O)CC3)cnc2c(Cl)c1OC(F)F [Example 228, 8-Chloro-7-(difluoromethoxy)-N-((trans)-4-(2-hydroxypropan-2-yl)cyclohexyl)-6-methylquinoline-3-carboxamide]	10 to 79.4
CC(C)(O)[C@H]1C[C@H](NC(=O)c2cnc3cc(OC(F)F)ccc3c2)C1 [Example 11, 7-(Difluoromethoxy)-N-(trans-3-(2-hydroxypropan-2-yl)cyclobutyl)quinoline-3-carboxamide]	10 to 79.4
CC(C)(O)[C@H]1CC[C@H](NC(=O)c2cnc3cc4c(cc3c2)OCO4)CC1 [Example 195, N-(trans-4-(2-Hydroxypropan-2-yl)cyclohexyl)-[1,3]dioxolo[4,5-q]quinoline-7-carboxamide]	100 to 1000
CC(C)(O)CO[C@H]1CC[C@H](NC(=O)c2cnc3cc(OC(F)F)ccc3c2)CC1 [Example 12, 7-(Difluoromethoxy)-N-(trans-4-(2-hydroxy-2-methylpropoxy)cyclohexyl)quinoline-3-carboxamide]	10 to 79.4
CC(C)Nc1cc2ncc(C(=O)N[C@H]3CC[C@H](C(C)(C)O)CC3)cc2cc1Cl [Example 212, 6-Chloro-N-((trans)-4-(2-hydroxypropan-2-yl)cyclohexyl)-7-(isopropylamino)quinoline-3-carboxamide]	< 10
C[C@H](N[C@H]1CC[C@H](NC(=O)c2cnc3cc(OC(F)F)c(F)cc3c2)CC1)C(F)(F)F [Example 63, 7-(Difluoromethoxy)-6-fluoro-N-(trans-4-(((S)-1,1,1-trifluoropropan-2-yl)amino)cyclohexyl)quinoline-3-carboxamide]	< 10
CCOC(=O)c1cnc(N2CC(NC(=O)c3cnc4cc(OC(F)F)c(F)cc4c3)C2)o1 [Example 84, Ethyl 2-(3-(7-(difluoromethoxy)-6-fluoroquinoline-3-carboxamido)azetidin-1-yl)oxazole-5-carboxylate]	10 to 79.4
CC1(O)CC(NC(=O)c2cnc3cc(N4CCC4)c(Cl)cc3c2)C1 (centres unmarked) [Example 167, 7-(Azetidin-1-yl)-6-chloro-N-(3-hydroxy-3-methylcyclobutyl)quinoline-3-carboxamide trifluoroacetic Acid Salt]	< 10
COc1cccc2cc(C(=O)N[C@H]3CC[C@H](C(C)(C)O)CC3)cnc12 [Example 189, N-(trans-4-(2-Hydroxypropan-2-yl)cyclohexyl)-8-methoxyquinoline-3-carboxamide]	100 to 1000
O=C(N[C@H]1C[C@](O)(C(F)(F)F)C1)c1cnc2cc(OC(F)F)c(Cl)cc2c1 [Example 232, 6-Chloro-7-(difluoromethoxy)-N-((1s,3s)-3-hydroxy-3-(trifluoromethyl)cyclobutyl)quinoline-3-carboxamide]	< 10
CC(C)(O)[C@H]1CC[C@H](NC(=O)c2cnc3cc(N4CCC4)c(F)cc3c2)CC1 [Example 162, 7-(Azetidin-1-yl)-6-fluoro-N-(trans-4-(2-hydroxypropan-2-yl)cyclohexyl)quinoline-3-carboxamide]	< 10

Structure (SMILES)	IC50 [nM]
O=C(N[C@H]1CONC1=O)c1cnc2cc(C3CC3)c(Cl)cc2c1 [Example 38, (S)-6-Chloro-7-cyclopropyl-N-(3-oxoisoxazolidin-4-yl)quinoline-3-carboxamide]	< 10
COc1cccc2cc(C(=O)Nc3nccs3)cnc12 [Example 28, 8-Methoxy-N-(thiazol-2-yl)quinoline-3-carboxamide]	10 to 79.4
O=C(N[C@H]1CC[C@H](C2(O)CC2)CC1)c1cnc2cc(OC(F)F)ccc2c1 [Example 18, 7-(Difluoromethoxy)-N-(trans-4-(1-hydroxycyclopropyl)cyclohexyl)quinoline-3-carboxamide]	< 10
O=C(N[C@H]1CCNC1=O)c1cnc2cc(C3CC3)c(Cl)cc2c1 [Example 35, (S)-6-Chloro-7-cyclopropyl-N-(2-oxopyrrolidin-3-yl)quinoline-3-carboxamide hydrochloride]	< 10
CC(O)[C@H]1CC[C@H](NC(=O)c2cnc3cc(OC(F)F)ccc3c2)CC1 (stereo partly drawn) [Example 13, 7-(Difluoromethoxy)-N-(trans-4-(-1-hydroxyethyl)cyclohexyl)quinoline-3-carboxamide]	10 to 79.4
CC1CCN1c1cc2ncc(C(=O)N[C@H]3CCNC3=O)cc2cc1Cl (stereo partly drawn) [Example 182, 6-Chloro-7-(2-methylazetidin-1-yl)-N—((S)-2-oxopyrrolidin-3-yl)quinoline-3-carboxamide]	10 to 79.4
CN(C)C(=O)[C@H]1CC[C@H](NC(=O)c2cnc3cc(OC(F)F)ccc3c2)CC1 [Example 5, 7-(Difluoromethoxy)-N-((trans)-4-(dimethylcarbamoyl)cyclohexyl)quinoline-3-carboxamide]	10 to 79.4
O=C(N[C@H]1CC[C@H](N[C@H](CO)C(F)(F)F)CC1)c1cnc2cc(OC(F)F)c(Cl)cc2c1 [Example 135, 6-Chloro-7-(difluoromethoxy)-N-(trans-4-(((R)-1,1,1-trifluoro-3-hydroxypropan-2-yl)amino)cyclohexyl)quinoline-3-carboxamide]	< 10
CC(F)(F)c1cc2ncc(C(=O)N[C@H]3CC[C@H](C(C)(C)O)CC3)cc2cc1Cl [Example 231, 6-Chloro-7-(1,1-difluoroethyl)-N-((trans)-4-(2-hydroxypropan-2-yl)cyclohexyl)quinoline-3-carboxamide]	< 10
O=C(N[C@H]1CC[C@H](C(=O)N2CCOCC2)CC1)c1cnc2cc(OC(F)F)c(Cl)cc2c1 [Example 210, 6-Chloro-7-(difluoromethoxy)-N-((trans)-4-(morpholine-4-carbonyl)cyclohexyl)quinoline-3-carboxamide]	< 10
CC1CN(c2cc3ncc(C(=O)N[C@@H]4C(=O)NC[C@H]4C)cc3cc2F)C1 [Example 207, 6-Fluoro-N-((3S,4R)-4-methyl-2-oxopyrrolidin-3-yl)-7-(3-methylazetidin-1-yl)quinoline-3-carboxamide]	100 to 1000
CC(C)(O)[C@H]1CC[C@H](NC(=O)c2cnc3cc(C4CC4(F)F)c(Cl)cc3c2)CC1 (stereo partly drawn) [Example 222, 6-Chloro-7-(2,2-difluorocyclopropyl)-N-((trans)-4-(2-hydroxypropan-2-yl)cyclohexyl)quinoline-3-carboxamide]	10 to 79.4
CC(C)N1CC[C@H](NC(=O)c2cnc3cc(OC(F)F)c(Cl)cc3c2)C1=O [Example 119, (S)-6-Chloro-7-(difluoromethoxy)-N-(1-isopropyl-2-oxopyrrolidin-3-yl)quinoline-3-carboxamide]	10 to 79.4
CC(C)(O)C(=O)N1CC(NC(=O)c2cnc3cc(OC(F)F)c(Cl)cc3c2)C1 [Example 221, 6-Chloro-7-(difluoromethoxy)-N-(1-(2-hydroxy-2-methylpropanoyl)azetidin-3-yl)quinoline-3-carboxamide]	100 to 1000
CC(C)(O)[C@H]1CC[C@H](NC(=O)c2cnc3cc(OC(F)F)c(F)cc3c2)CC1 [Example 51, 7-(Difluoromethoxy)-6-fluoro-N-(trans-4-(2-hydroxypropan-2-yl)cyclohexyl)quinoline-3-carboxamide]	10 to 79.4
O=C(N[C@H]1CC[C@H](NCC(F)F)CC1)c1cnc2cc(OC(F)F)c(F)cc2c1 [Example 49, N-(trans-4-((2,2-Difluoroethyl)amino)cyclohexyl)-7-(difluoromethoxy)-6-fluoroquinoline-3-carboxamide]	10 to 79.4
C[C@H](NC[C@H]1CC[C@H](NC(=O)c2cnc3cc(OC(F)F)c(F)cc3c2)CC1)C(F)F [Example 100, 7-(Difluoromethoxy)-N-(trans-4-((((S)-1,1-difluoropropan-2-yl)amino)methyl)cyclohexyl)-6-fluoroquinoline-3-carboxamide]	10 to 79.4
O=C(N[C@H]1CC[C@H]([C@H](O)C(F)(F)F)CC1)c1cnc2cc(OC(F)F)ccc2c1 (single isomer, unassigned) [Example 21]	< 10

Same assay, conditions: in at least one experimental run; read-out: H-PGDS pIC50 value (converted)

Structure (SMILES)	IC50 [nM]
N#Cc1cc2cc(C(=O)N[C@H]3CCNC3=O)cnc2cc1C1CC1 [Example 25, (S)-6-Cyano-7-cyclopropyl-N-(2-oxopyrrolidin-3-yl)quinoline-3-carboxamide hydrochloride]	25.1
CC(C)(O)[C@H]1CC[C@H](NC(=O)c2cnc3cc(C4CC4(F)F)c(Cl)cc3c2)CC1 (stereo partly drawn) [Example 222, 6-Chloro-7-(2,2-difluorocyclopropyl)-N-((trans)-4-(2-hydroxypropan-2-yl)cyclohexyl)quinoline-3-carboxamide]	63.1
